Consider 20 compounds from patent US10730874B2 (Shire Human Genetic Therapies, Inc., priority 2018, dated 2020).

In this assay the target is human activated kallikrein enzyme (plasma kallikrein) (Homo sapiens (Human), UniProt P03952). Put plainly: Inhibition of human activated plasma kallikrein, fluorogenic peptide substrate assay, 500 pM enzyme format. Type of assay: biochemical. The settings on record: 500 pM activated kallikrein enzyme, 300 uM Pro-Phe-Arg-7-amido-4-methylcoumarin substrate, 30 min preincubation, 10 min at RT; read-out: Primary Dose Response Assay: Average EC50. In a few lines: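 Buffer 20 mM Tris pH 7.5, EDTA, NaCl, PEG-400, Triton X-100; 300 uM Pro-Phe-Arg-AMC; enzyme–inhibitor preincubation 30 min RT. Format one: 500 pM kallikrein, 10 min RT reaction; format two: 5 pM kallikrein, 18 h RT reaction. Fluorescence read at 460 nm (380 nm excitation).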
Sequence of human activated kallikrein enzyme (plasma kallikrein) (P03952 391-638): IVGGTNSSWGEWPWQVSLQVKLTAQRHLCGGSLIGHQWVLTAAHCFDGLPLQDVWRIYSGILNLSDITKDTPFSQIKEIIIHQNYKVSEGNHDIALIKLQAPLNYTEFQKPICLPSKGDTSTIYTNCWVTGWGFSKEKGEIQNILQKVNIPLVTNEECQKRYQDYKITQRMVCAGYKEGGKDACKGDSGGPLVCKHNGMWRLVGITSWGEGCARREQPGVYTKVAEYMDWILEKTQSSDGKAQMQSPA
Sequence of human activated kallikrein enzyme (plasma kallikrein) (P03952 20-390 partner): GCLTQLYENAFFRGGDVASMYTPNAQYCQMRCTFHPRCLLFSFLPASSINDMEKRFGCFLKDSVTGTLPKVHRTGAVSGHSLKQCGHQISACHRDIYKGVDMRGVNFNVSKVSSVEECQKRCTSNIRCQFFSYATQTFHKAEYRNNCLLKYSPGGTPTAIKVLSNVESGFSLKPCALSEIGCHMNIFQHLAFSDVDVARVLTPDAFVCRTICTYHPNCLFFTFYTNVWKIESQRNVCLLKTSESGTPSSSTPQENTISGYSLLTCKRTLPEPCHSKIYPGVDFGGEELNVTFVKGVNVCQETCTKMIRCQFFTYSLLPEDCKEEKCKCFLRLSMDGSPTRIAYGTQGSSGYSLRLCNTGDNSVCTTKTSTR
Consider `COC(=O)Cc1cc(C2CC2)cn2cc(Cn3cc(C(=O)NCc4ncn5ccc(Cl)cc45)cn3)nc12` [Example I-81, methyl 2-(2-((4-(((7-chloroimidazo[1,5-a]pyridin-1-yl)methyl)carbamoyl)-1H-pyrazol-1-yl)methyl)-6-cyclopropylimidazo[1,2-a]pyridin-8-yl)acetate], for which the EC50 (usually the concentration that produces a half-maximal response) was less than 0.001 µM.

Turning to `COC(=O)CCc1c(C(=O)NCc2ncn3ccc(Cl)cc23)cnn1Cc1cn2cc(C3CC3)ccc2n1` [Example I-82, methyl 3-(4-(((7-chloroimidazo[1,5-a]pyridin-1-yl)methyl)carbamoyl)-1-((6-cyclopropylimidazo[1,2-a]pyridin-2-yl)methyl)-1H-pyrazol-5-yl)propanoate], the EC50 lay within 0.01 to 0.1 µM.

Take `O=C(NCc1nc(C(F)F)n2ccc(Br)cc12)c1cnn(Cc2cn3cc(C4CC4)ccc3n2)c1` [Example I-83, N-((7-bromo-3-(difluoromethyl)imidazo[1,5-a]pyridin-1-yl)methyl)-1-((6-cyclopropylimidazo[1,2-a]pyridin-2-yl)methyl)-1H-pyrazole-4-carboxamide]: the EC50 was in the range of 0.01 to 0.1 µM.

Take `O=C(NCc1ncn2ccc(Cl)cc12)c1cnn(Cc2cc3ncc(C4CC4)cc3[nH]2)c1` [Example I-84, N-((7-chloroimidazo[1,5-a]pyridin-1-yl)methyl)-1-((6-cyclopropyl-1H-pyrrolo[3,2-b]pyridin-2-yl)methyl)-1H-pyrazole-4-carboxamide]: the EC50 lay within 0.01 to 0.1 µM.

`O=C(NCc1ncn2ccc(Br)cc12)c1cn(Cc2cn3cc(C4CC4)ccc3n2)nc1C1CC1` [Example I-85, N-((7-bromoimidazo[1,5-a]pyridin-1-yl)methyl)-3-cyclopropyl-1-((6-cyclopropylimidazo[1,2-a]pyridin-2-yl)methyl)-1H-pyrazole-4-carboxamide]: the EC50 was less than 0.001 µM.

For the compound `O=C(O)Cc1cc(C2CC2)cn2cc(Cn3cc(C(=O)NCc4ncn5ccc(Cl)cc45)cn3)nc12` [Example I-86, 2-(2-((4-(((7-chloroimidazo[1,5-a]pyridin-1-yl)methyl)carbamoyl)-1H-pyrazol-1-yl)methyl)-6-cyclopropylimidazo[1,2-a]pyridin-8-yl)acetic acid], the EC50 is less than 0.001 µM.

On to `O=C(NCc1ncn2ccc(Cl)cc12)c1cnn(Cc2cn3cc(C4CC4)cc(CCO)c3n2)c1` [Example I-87, N-((7-chloroimidazo[1,5-a]pyridin-1-yl)methyl)-1-((6-cyclopropyl-8-(hydroxyethyl)imidazo[1,2-a]pyridin-2-yl)methyl)-1H-pyrazole-4-carboxamide], for which the EC50 was less than 0.001 µM.

Regarding `Nc1c(C2CC2)ccc2nc(Cn3cc(C(=O)NCc4ncn5ccc(Cl)cc45)cn3)cn12` [Example I-88, 1-((5-amino-6-cyclopropylimidazo[1,2-a]pyridin-2-yl)methyl)-N-((7-chloroimidazo[1,5-a]pyridin-1-yl)methyl)-1H-pyrazole-4-carboxamide], the EC50 is 0.001 to 0.01 µM.

As to `Nc1ccc(C2CC2)c2nc(Cn3cc(C(=O)NCc4ncn5ccc(Cl)cc45)cn3)cn12` [Example I-89, 1-((5-amino-8-cyclopropylimidazo[1,2-a]pyridin-2-yl)methyl)-N-((7-chloroimidazo[1,5-a]pyridin-1-yl)methyl)-1H-pyrazole-4-carboxamide], the EC50 is 0.1 to 2 µM.

On to `[2H]C([2H])(NC(=O)c1cnn(Cc2cn3cc(C4CC4)ccc3n2)c1)c1ncn2ccc(Cl)cc12` [Example I-90, N-((7-chloroimidazo[1,5-a]pyridin-1-yl)methyl-d2)-1-((6-cyclopropylimidazo[1,2-a]pyridin-2-yl)methyl)-1H-pyrazole-4-carboxamide], for which the 50% effective concentration (EC50) was less than 0.001 µM.

For `COC(=O)c1ccc2nc(Cn3cc(C(=O)NCc4ncn5ccc(Cl)cc45)cn3)cn2c1` [Example I-91, methyl 2-((4-(((7-chloroimidazo[1,5-a]pyridin-1-yl)methyl)carbamoyl)-1H-pyrazol-1-yl)methyl)imidazo[1,2-a]pyridine-6-carboxylate], the EC50 lay within 0.01 to 0.1 µM.

`N#Cc1cc(C2CC2)cn2cc(Cn3cc(C(=O)NCc4ncn5ccc(Cl)cc45)cn3)nc12` [Example I-92, N-((7-chloroimidazo[1,5-a]pyridin-1-yl)methyl)-1-((8-cyano-6-cyclopropylimidazo[1,2-a]pyridin-2-yl)methyl)-1H-pyrazole-4-carboxamide]: the EC50 is less than 0.001 µM.

Take `CCOC(=O)CCc1nn(Cc2cn3cc(C4CC4)ccc3n2)cc1C(=O)NCc1ncn2ccc(Cl)cc12` [Example I-93, ethyl 3-(4-(((7-chloroimidazo[1,5-a]pyridin-1-yl)methyl)carbamoyl)-1-((6-cyclopropylimidazo[1,2-a]pyridin-2-yl)methyl)-1H-pyrazol-3-yl)propanoate]: the EC50 is less than 0.001 µM.

Turning to `O=C(NCCc1ncn2ccc(Cl)cc12)c1cnn(Cc2cn3cc(C4CC4)ccc3n2)c1` [Example I-94, N-(2-(7-chloroimidazo[1,5-a]pyridin-1-yl)ethyl)-1-((6-cyclopropylimidazo[1,2-a]pyridin-2-yl)methyl)-1H-pyrazole-4-carboxamide], the EC50 was 0.01 to 0.1 µM.

Take `O=C(NCc1ncn2ccc(Br)cc12)c1cn(Cc2cn3cc(C4CC4)ccc3n2)nc1C(F)F` [Example I-95, N-((7-bromoimidazo[1,5-a]pyridin-1-yl)methyl)-1-((6-cyclopropylimidazo[1,2-a]pyridin-2-yl)methyl)-3-(difluoromethyl)-1H-pyrazole-4-carboxamide]: the EC50 fell in the range of 0.001 to 0.01 µM.

Regarding `O=C(O)c1ccc2nc(Cn3cc(C(=O)NCc4ncn5ccc(Cl)cc45)cn3)cn2c1` [Example I-96, 2-((4-(((7-chloroimidazo[1,5-a]pyridin-1-yl)methyl)carbamoyl)-1H-pyrazol-1-yl)methyl)imidazo[1,2-a]pyridine-6-carboxylic acid], the EC50 is greater than 2 µM.

On to `C#Cc1ccn2cnc(CNC(=O)c3cnn(Cc4cn5nc(C6CC6)ccc5n4)c3)c2c1` [Example I-98, 1-((6-cyclopropylimidazo[1,2-b]pyridazin-2-yl)methyl)-N-((7-ethynylimidazo[1,5-a]pyridin-1-yl)methyl)-1H-pyrazole-4-carboxamide], for which the EC50 is less than 0.001 µM.

Turning to `O=C(NCc1ncn2ccc(Cl)cc12)c1cn(Cc2cn3cc(C4CC4)ccc3n2)nc1C(F)F` [Example I-99, N-((7-chloroimidazo[1,5-a]pyridin-1-yl)methyl)-1-((6-cyclopropylimidazo[1,2-a]pyridin-2-yl)methyl)-3-(difluoromethyl)-1H-pyrazole-4-carboxamide], the EC50 was less than 0.001 µM.

On to `CCOC(=O)C=Cc1cc(C2CC2)cn2cc(Cn3cc(C(=O)NCc4ncn5ccc(Cl)cc45)cn3)nc12` [Example I-100a, ethyl 3-(2-((4-(((7-chloroimidazo[1,5-a]pyridin-1-yl)methyl)carbamoyl)-1H-pyrazol-1-yl)methyl)-6-cyclopropylimidazo[1,2-a]pyridin-8-yl)acrylate], for which the 50% effective concentration (EC50) was less than 0.001 µM.

As for `CCOC(=O)CCc1cc(C2CC2)cn2cc(Cn3cc(C(=O)NCc4ncn5ccc(Cl)cc45)cn3)nc12` [Example I-100b, ethyl 3-(2-((4-(((7-chloroimidazo[1,5-a]pyridin-1-yl)methyl)carbamoyl)-1H-pyrazol-1-yl)methyl)-6-cyclopropylimidazo[1,2-a]pyridin-8-yl)propanoate], the EC50 is less than 0.001 µM.
